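96-well plates; 48 h exposure; 5 concentrations. Endpoints by linear interpolation between flanking doses. Not reached: highest tested concentration assigned. GI50 = concentration required for 50% inhibition of growth.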 Calls of active or inactive are those of the source. Cut-off read from the data, not from the text of the source: active = GI50 up to about 1.1 µM and inactive = higher.
Tests used:
Assay in all cases: NCI-60 cell line screen, 48 h
786-0 = tested on: 786-0
A549 = tested on: A549
CCRF-CEM = tested on: CCRF-CEM
DU-145 = tested on: DU-145
EKVX = tested on: EKVX
HL-60 = tested on: HL-60
HOP-62 = tested on: HOP-62
K562 = tested on: K562
M14 = tested on: M14
NCI-H226 = tested on: NCI-H226
NCI-H460 = tested on: NCI-H460
OVCAR-3 = tested on: OVCAR-3
OVCAR-4 = tested on: OVCAR-4
OVCAR-5 = tested on: OVCAR-5
SK-MEL-28 = tested on: SK-MEL-28
SK-MEL-2 = tested on: SK-MEL-2
SW-620 = tested on: SW-620
TK-10 = tested on: TK-10
SF-268 = tested on: SF-268
RXF 393 = tested on: RXF 393

Measured: GI50

COc1ccc(S(=O)(=O)N2C(=O)CCC2C(=O)NN)cc1 (configuration not stated)
inactive: 786-0 > 100 µM | A549 > 100 µM | CCRF-CEM > 100 µM | DU-145 > 100 µM | EKVX > 100 µM | HL-60 > 100 µM | HOP-62 > 100 µM | K562 > 100 µM | M14 > 100 µM | NCI-H226 > 100 µM | NCI-H460 > 100 µM | OVCAR-3 > 100 µM | OVCAR-4 > 100 µM | OVCAR-5 > 100 µM | SK-MEL-28 > 100 µM | SK-MEL-2 > 100 µM | SW-620 > 100 µM | TK-10 > 100 µM

O=C(Nc1nc(C23CC4CC(CC(C4)C2)C3)cs1)c1cc2c(ccc3ccccc32)oc1=O
inactive: 786-0 > 100 µM | A549 > 100 µM | CCRF-CEM > 100 µM | DU-145 > 100 µM | EKVX > 100 µM | HL-60 > 100 µM | HOP-62 > 100 µM | K562 > 100 µM | NCI-H226 > 100 µM | NCI-H460 > 100 µM | OVCAR-3 > 100 µM | OVCAR-4 > 100 µM | OVCAR-5 > 100 µM | SF-268 > 100 µM | SK-MEL-28 > 100 µM | SW-620 > 100 µM | TK-10 > 100 µM

S=C1CC(c2ccc(Cl)cc2)Sc2ccccc2N1 (configuration not stated)
inactive: 786-0 34 µM | A549 55.5 µM | CCRF-CEM 51.9 µM | DU-145 51.4 µM | EKVX 34 µM | HL-60 30.5 µM | HOP-62 16.4 µM | K562 > 10 µM | M14 24.3 µM | NCI-H226 50.5 µM | NCI-H460 60 µM | OVCAR-3 23.1 µM | OVCAR-4 28.8 µM | OVCAR-5 > 100 µM | RXF 393 16.2 µM | SF-268 24.7 µM | SK-MEL-28 25.2 µM | TK-10 46.7 µM

CCOC(=O)c1csc(C(CSCc2ccc(OC)cc2)N2C(=O)c3ccccc3C2=O)n1 (configuration not stated)
inactive: 786-0 88.1 µM | A549 > 100 µM | CCRF-CEM 35.9 µM | DU-145 > 100 µM | EKVX > 100 µM | HL-60 33.7 µM | HOP-62 > 100 µM | K562 33.9 µM | M14 > 100 µM | NCI-H226 > 100 µM | NCI-H460 > 100 µM | OVCAR-3 > 100 µM | OVCAR-4 > 100 µM | OVCAR-5 > 100 µM | RXF 393 > 100 µM | SF-268 > 100 µM | SK-MEL-28 > 100 µM | SW-620 50.2 µM | TK-10 > 100 µM

COc1cc(C2c3cc4c(cc3OC(N3CCOCC3)C2C)OCO4)ccc1O (configuration not stated)
inactive: 786-0 18.4 µM | A549 13.4 µM | CCRF-CEM 8.67 µM | DU-145 28.7 µM | EKVX 36.1 µM | HL-60 3.72 µM | HOP-62 11.7 µM | K562 4.35 µM | M14 6.34 µM | NCI-H460 12 µM | OVCAR-3 7.62 µM | OVCAR-4 50.9 µM | OVCAR-5 > 76.2 µM | RXF 393 11.5 µM | SF-268 35.2 µM | SK-MEL-28 34.1 µM | SK-MEL-2 6.24 µM | SW-620 6.3 µM | TK-10 36.5 µM

CCN(C(C)=O)c1cnc(/C=N/NC(N)=S)c2ccccc12
inactive: 786-0 1.61 µM | A549 4.01 µM | CCRF-CEM 2.54 µM | DU-145 2.06 µM | EKVX 4.29 µM | HL-60 1.77 µM | HOP-62 5.61 µM | K562 4 µM | M14 2.58 µM | NCI-H226 3.44 µM | NCI-H460 1.5 µM | OVCAR-3 2.58 µM | OVCAR-4 9.31 µM | OVCAR-5 > 20 µM | RXF 393 17.9 µM | SF-268 1.58 µM | SW-620 5.68 µM | TK-10 4.59 µM

C#CC1(OC(C)=O)CCC2C3CC=C4C=C(OC(C)=O)CCC4(C)C3CCC21C (configuration not stated)
inactive: 786-0 30.3 µM | A549 31.6 µM | CCRF-CEM 12.6 µM | DU-145 31.1 µM | EKVX 30.5 µM | HL-60 28.6 µM | HOP-62 44.9 µM | K562 23.9 µM | M14 26.7 µM | NCI-H226 24.8 µM | NCI-H460 27 µM | OVCAR-3 20 µM | OVCAR-4 19.4 µM | OVCAR-5 34.7 µM | SF-268 23.8 µM | SK-MEL-28 25.9 µM | SK-MEL-2 19.7 µM | SW-620 23.4 µM | TK-10 24.3 µM

CCOP(=O)(OCC)/C(C#N)=C/c1c(C)[nH]c2ccccc12
inactive: 786-0 > 100 µM | A549 > 100 µM | CCRF-CEM > 100 µM | DU-145 > 100 µM | EKVX > 100 µM | HL-60 > 100 µM | HOP-62 > 100 µM | K562 > 100 µM | M14 > 100 µM | NCI-H226 > 100 µM | NCI-H460 > 100 µM | OVCAR-3 > 100 µM | OVCAR-4 > 100 µM | OVCAR-5 > 100 µM | RXF 393 > 100 µM | SF-268 > 100 µM | SK-MEL-28 > 100 µM | SW-620 > 100 µM | TK-10 > 100 µM

Source: ChEMBL document CHEMBL1201862, “PubChem BioAssay data set” (2004)
